Results taken from patent publication US9434727B2, “Substituted 4-phenylpiperidines, their preparation and use” (THE TRUSTEES OF COLUMBIA UNIVERSITY IN THE CITY OF NEW YORK, priority 2014, dated 2016).
Where a name gives a salt, the structure may show the parent alone.

Columns and labels:
RBP4 [1] = target: T1, RBP4 (Homo sapiens (Human), UniProt P02753); assay: Scintillation proximity (SPA) RBP4 binding assay; conditions: 10 nM 3H-Retinol, 50 nM biotinylated RBP4
Summary of the method: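 Biotinylated urinary human RBP4 (50 nM) on streptavidin-PVT SPA beads with 10 nM ³H-retinol and test compound, in PBS pH 7.4, 1 mM EDTA, 0.1% BSA, 0.5% CHAPS. Nonspecific binding with 20 μM unlabeled retinol. Equilibrated 6 h at room temperature then overnight at 4° C under dim light.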

serum RBP4 = serum RBP4 (Mus musculus (Mouse), UniProt Q00724); assay: Serum RBP4 levels in Abca4−/− mice; type: in vivo; conditions: 25 mg/kg for 12 weeks, mice starting at 17 weeks old
Method: (§1) The effectiveness of the compounds listed in Table 1 are tested in wild-type and Abca4−/− mice. The Abca4−/− mouse model manifests accelerated accumulation of lipofuscin in the RPE and is considered a pre-clinical efficacy model for a drug reducing lipofuscin accumulation. Compounds are orally dosed for 3 weeks at 30 mg/kg. There is a reduction in the serum RBP4 level in treated animals. The levels of A2E/isoA2E and other bisretinoids are reduced in treated mice.
(§2) Abca4−/− mice have A2E levels in the ˜15-19 pmoles/eye range at 17 weeks old. Mice, starting at 17 weeks old, were treated with 25 mg/kg of Compound 81 for 12 weeks.

RBP4-TTR interaction [2] = target: T2, RBP4-TTR interaction (Homo sapiens (Human), UniProt P02753); assay: TR-FRET (HTRF) assay for retinol-induced RBP4-TTR interaction; type: biochemical; conditions: in the presence of 1 μM retinol; read-out: HTRF assay for antagonists of RBP4-TTR interaction: IC50
Summary of the method: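 Bacterial MBP-RBP4 and Eu³⁺-cryptate-labeled untagged human TTR were incubated with titrated compound in the presence of 1 μM retinol, overnight at +4° C in the dark. Buffer: 10 mM Tris-HCl pH 7.5, 1 mM DTT, 0.05% NP-40, 0.05% Prionex, 6% glycerol, 400 mM KF. Signal is reported as Flu665/Flu620×10,000.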

Abca4−/− mice [3] = assay: Bisretinoid accumulation in eyes of Abca4−/− mice; type: in vivo, mouse; conditions: 25 mg/kg for 12 weeks, mice starting at 17 weeks old, versus vehicle-treated controls
Method: as §1, §2

RBP4-TTR interaction [4] = target: T2, RBP4-TTR interaction; conditions: cited from earlier work
serum RBP4 and retinol = serum RBP4 and retinol (Rattus norvegicus (Rat), UniProt P04916); conditions: in vivo; cited from earlier work
[5] = tested on: retinal pigment epithelium cells; conditions: many cell types, including the retinal pigment epithelium cells; cited from earlier work
mice = conditions: cited from earlier work
Abca4−/− mice [6] = conditions: cited from earlier work
RBP4 [7] = target: T1, RBP4; conditions: cited from earlier work

Row | SMILES | IC50 (RBP4 [1]) | serum RBP4 level (serum RBP4; present-tense paper example) | IC50 (RBP4-TTR interaction [2]) | other results
1 | O=C(c1n[nH]c2c1CNC2)N1CCC(c2ccc(F)c(F)c2C(F)(F)F)CC1 [Compound 38, (4-(3,4-Difluoro-2-(trifluoromethyl)phenyl)piperidin-1-yl)(1,4,5,6-tetrahydropyrrolo[3,4-c]pyrazol-3-yl)methanone Hydrochloride] | 26.9 nM | significant serum RBP4 reduction | 200 nM | 
2 | CC(=O)N1CCc2c(C(=O)N3CCC(c4ccc(F)c(F)c4C(F)(F)F)CC3)n[nH]c2C1 [Compound 81, 1-(3-(4-(3,4-Difluoro-2-(trifluoromethyl)phenyl)piperidine-1-carbonyl)-4,5-dihydro-1H-pyrazolo[3,4-c]pyridin-6(7H)-yl)ethanone] |  |  |  | serum RBP4 level (serum RBP4): significant serum RBP4 reduction; reduction in bisretinoid content (Abca4−/− mice [3]): 53%
3 | O=C(c1n[nH]c2c1CNCC2)N1CCC(c2cccc(F)c2Cl)CC1 [Compound 42, (4-(2-Chloro-3-fluorophenyl)piperidin-1-yl)(4,5,6,7-tetrahydro-1Hpyrazolo[4,3-c]pyridin-3-yl) methanone Hydrochloride] | 424 nM | significant serum RBP4 reduction | 791 nM | 
4 | O=C(c1n[nH]c2c1CCNC2)N1CCC(c2ccc(F)c(F)c2C(F)(F)F)CC1 [Compound 34] | 20.7 nM | significant serum RBP4 reduction | 53.1 nM | 
5 | O=C(c1n[nH]c2c1CCNC2)N1CCC(c2cccc(F)c2C(F)(F)F)CC1 [Compound 30, (4-(3-Fluoro-2-(trifluoromethyl)phenyl)piperidin-1-yl)(4,5,6,7-tetrahydro-1H-pyrazolo[3,4-c]pyridin-3-yl)methanone Hydrochloride] | 13.3 nM | significant serum RBP4 reduction | 44.1 nM | 
6 | CC1=C(/C=C/C(C)=C/C=C/C(C)=C/C(=O)Nc2ccc(O)cc2)C(C)(C)CCC1 [fenretinide, N-(4-hydroxy-phenyl)retinamide] |  |  |  | RBP4-TTR interaction (RBP4-TTR interaction [4]): disrupt the RBP4-TTR interaction; serum RBP4 and retinol (serum RBP4 and retinol): reduce serum RBP4 and retinol; induction of apoptosis [5]: extremely active inducer of apoptosis; formation of hemangiosarcomas (mice): stimulate formation of hemangiosarcomas; A2E production (Abca4−/− mice [6]; Abca4−/− mice): reduced A2E production; ocular all-trans retinol uptake and visual cycle (Abca4−/− mice [6]; mouse, in vivo): inhibit ocular all-trans retinol uptake and slow down the visual cycle; binding to RBP4 and displacement of all-trans retinol (RBP4 [7]): bind to RBP4, displace all-trans retinol from RBP4
7 | O=C(c1n[nH]c2c1CNCC2)N1CCC(c2ccc(F)c(F)c2C(F)(F)F)CC1 [Compound 36, (4-(3,4-Difluoro-2-(trifluoromethyl)phenyl)piperidin-1-yl)(4,5,6,7-tetrahydro-1H-pyrazolo[4,3-c]pyridin-3-yl)methanone Trifluoroacetic Acid Salt] | 10.9 nM | significant serum RBP4 reduction | 291 nM | 
8 | CC(=O)N1CCc2c(C(=O)N3CCC(c4ccc(F)cc4C(F)(F)F)CC3)n[nH]c2C1 [Compound 158, 1-(3-(4-(4-fluoro-2-(trifluoromethyl)phenyl)piperidine-1-carbonyl)-4,5-dihydro-1H-pyrazolo[3,4-c]pyridin-6(7H)-yl)ethanone] | 8.63 nM |  | 36.8 nM | 
9 | CCC(=O)N1CCc2c(C(=O)N3CCC(c4ccc(F)c(F)c4C(F)(F)F)CC3)n[nH]c2C1 [Compound 122, 1-(3-(4-(3,4-Difluoro-2-(trifluoromethyl)phenyl)piperidine-1-carbonyl)-1,4,5,7-tetrahydro-6H-pyrazolo[3,4-c]pyridin-6-yl)propan-1-one] | 17 nM |  | 27.7 nM | 
10 | COC(=O)N1Cc2[nH]nc(C(=O)N3CCC(c4ccc(F)c(F)c4C(F)(F)F)CC3)c2C1 [Compound 101, methyl 3-(4-(3,4-difluoro-2-(trifluoromethyl)phenyl)piperidine-1-carbonyl)-4,6-dihydropyrrolo[3,4-c]pyrazole-5(1H)-carboxylate] | 7.44 nM |  | 14.1 nM | 
11 | COC(=O)N1CCc2c(C(=O)N3CCC(c4cccc(F)c4Cl)CC3)n[nH]c2C1 [Compound 147, Methyl 3-(4-(2-chloro-3-fluorophenyl)piperidine-1-carbonyl)-4,5-dihydro-1H-pyrazolo[3,4-c]pyridine-6(7H)-carboxylate] | 17.1 nM |  | 25.5 nM | 
12 | CCN1CCc2c(C(=O)N3CCC(c4cccc(F)c4C(F)(F)F)CC3)n[nH]c2C1 [Compound 75, (6-Ethyl-4,5,6,7-tetrahydro-1H-pyrazolo[3,4-c]pyridin-3-yl)(4-(3-fluoro-2-(trifluormethyl)phenyl)piperidin-1-yl)methanone] | 6.95 nM |  | 34 nM | 
13 | CC(C)(C)CN1CCc2[nH]nc(C(=O)N3CCC(c4ccc(F)c(F)c4C(F)(F)F)CC3)c2C1 [Compound 90, (4-(3,4-difluoro-2-(trifluoromethyl)phenyl)piperidin-1-yl)(5-neopentyl-4,5,6,7-tetrahydro-1H-pyrazolo[4,3-c]pyridin-3-yl)methanone methanone] | 14.4 nM |  | 42.9 nM | 
14 | O=C(c1n[nH]c2c1CCNC2)N1CCC(c2cccc(F)c2Cl)CC1 [Compound 40, (4-(2-Chloro-3-fluorophenyl)piperidin-1-yl)(4,5,6,7-tetrahydro-1Hpyrazolo[3,4-c]pyridin-3-yl)methanone Hydrochloride] | 14 nM | significant serum RBP4 reduction | 84.9 nM | 
15 | CS(=O)(=O)N1CCc2[nH]nc(C(=O)N3CCC(c4cc(F)ccc4Cl)CC3)c2C1 [Compound 144, (4-(2-chloro-5-fluorophenyl)piperidin-1-yl)(5-(methylsulfonyl)-4,5,6,7-tetrahydro-1H-pyrazolo[4,3-c]pyridin-3-yl)methanone] | 6.17 nM |  | 70.3 nM | 
16 | COC(=O)N1CCc2[nH]nc(C(=O)N3CCC(c4ccc(F)c(F)c4C(F)(F)F)CC3)c2C1 [Compound 91, methyl 3-(4-(3,4-difluoro-2-(trifluoromethyl)phenyl)piperidine-1-carbonyl)-6,7-dihydro-1H-pyrazolo[4,3-c]pyridine-5(4H)-carboxylate] | 7.06 nM |  | 57.7 nM | 
17 | CC(C)C(=O)N1Cc2[nH]nc(C(=O)N3CCC(c4ccc(F)c(F)c4C(F)(F)F)CC3)c2C1 [Compound 85, 1-(3-(4-(3,4-difluoro-2-(trifluoromethyl)phenyl)piperidine-1-carbonyl)pyrrolo[3,4-c]pyrazol 5(1H,4H,6H)-yl)-2-methylpropan-1-one] | 17.9 nM |  | 22.4 nM | 
18 | O=C(c1n[nH]c2c1CN(CC1CC1)CC2)N1CCC(c2cccc(F)c2Cl)CC1 [Compound 164, (4-(2-Chloro-3-fluorophenyl)piperidin-1-yl)(5-(cyclopropylmethyl)-4,5,6,7-tetrahydro-1H-pyrazolo[4,3-c]pyridin-3-yl)methanone] | 13.6 nM |  | 75 nM | 
